{"source": "patent US20060293294A1", "about": "“Method for treatment or prevention of androgen deficiency” (HORMOS MEDICAL CORPORATION, priority 2004, published 2006)", "tested_on": "healthy, elderly men", "test": "Phase I repeated dose study 101-50202: serum hormone concentrations before and during 28-day treatment", "type": "in vivo, human", "settings": "for increase in the mean total testosterone compared to the baseline concentration: 300 mg dose", "description": "Fispemifene has been studied in two phase I studies in humans—in a single dose and a repeated dose study. Effect of fispemifene on hormone levels was one main focus of the repeated dose study. The phase I repeated dose study (number 101-50202) was a randomized, double-blind, placebo-controlled 28-day dose-escalation study performed in 32 healthy, elderly men, aged 50-68 years. The main objective of the study was to investigate the tolerability, safety and pharmacokinetics of fispemifene after repeated oral doses, but the study focused also on the effects of fispemifene on serum testosterone, estradiol, and other relevant hormones. The fispemifene doses 10, 30, 100 and 300 mg per day and placebo were administered once every morning as capsules containing 10 mg or 100 mg of fispemifene, or placebo. The dose was escalated to the next higher dose level, if the previous dose had been safe and well tolerated evaluated by the laboratory safety determinations and ultrasound of mammagy glands.\nThe variables for safety and tolerability were adverse events, vital signs, 12-lead ECG, clinical laboratory evaluations, physical examination, ultrasound examinations (mammary glands) and inhibin b. For pharmacokinetics, the concentrations of fispemifene and its metabolite(s) were to be evaluated. For pharmacodynamics, serum concentrations of FSH, LH, estradiol, testosterone, SHBG, prolactin, aldosterone, cortisol and TSH before and during treatment were measured and compared with the concentrations in the placebo-group."}
{"smiles": "OCCOCCOc1ccc(/C(=C(/CCCl)c2ccccc2)c2ccccc2)cc1", "note": "[Fispemifene, (Z)-2-{2-[4-(4-Chloro-1,2-diphenylbut-1-enyl)phenoxy]ethoxy}ethanol]", "values": [{"measurement": "Serum total testosterone concentration, Mean", "setting": "10 mg per day oral, Baseline", "value": 19.33, "unit": "nmol/L"}, {"measurement": "Serum total testosterone concentration, Mean", "setting": "10 mg per day oral, Day 8", "value": 19.83, "unit": "nmol/L"}, {"measurement": "Serum total testosterone concentration, Mean", "setting": "10 mg per day oral, Day 15", "value": 20.50, "unit": "nmol/L"}, {"measurement": "Serum total testosterone concentration, Mean", "setting": "10 mg per day oral, Day 22", "value": 22.00, "unit": "nmol/L"}, {"measurement": "Serum total testosterone concentration, Mean", "setting": "10 mg per day oral, Day 28", "value": 17.40, "unit": "nmol/L"}, {"measurement": "Serum total testosterone concentration, Mean", "setting": "30 mg per day oral, Baseline", "value": 15.00, "unit": "nmol/L"}, {"measurement": "Serum total testosterone concentration, Mean", "setting": "30 mg per day oral, Day 8", "value": 14.40, "unit": "nmol/L"}, {"measurement": "Serum total testosterone concentration, Mean", "setting": "30 mg per day oral, Day 15", "value": 15.00, "unit": "nmol/L"}, {"measurement": "Serum total testosterone concentration, Mean", "setting": "30 mg per day oral, Day 22", "value": 15.80, "unit": "nmol/L"}, {"measurement": "Serum total testosterone concentration, Mean", "setting": "30 mg per day oral, Day 28", "value": 14.80, "unit": "nmol/L"}, {"measurement": "increase of the mean total testosterone", "setting": "100 mg dose, 28 days of treatment", "value": "about 32%"}, {"measurement": "subjects in whom an increase in testosterone serum concentration was seen", "setting": "100 mg or 300 mg, 28-day treatment", "value": "all the subjects"}, {"measurement": "Serum total testosterone concentration, Mean", "setting": "100 mg per day oral, Baseline", "value": 14.27, "unit": "nmol/L"}, {"measurement": "Serum total testosterone concentration, Mean", "setting": "100 mg per day oral, Day 8", "value": 18.67, "unit": "nmol/L"}, {"measurement": "Serum total testosterone concentration, Mean", "setting": "100 mg per day oral, Day 15", "value": 19.00, "unit": "nmol/L"}, {"measurement": "Serum total testosterone concentration, Mean", "setting": "100 mg per day oral, Day 22", "value": 17.83, "unit": "nmol/L"}, {"measurement": "Serum total testosterone concentration, Mean", "setting": "100 mg per day oral, Day 28", "value": 18.83, "unit": "nmol/L"}, {"measurement": "increase in the mean total testosterone compared to the baseline concentration", "setting": "28 days of treatment", "value": 75, "unit": "%"}, {"measurement": "increase in the mean total testosterone compared to the baseline concentration", "setting": "28 days of treatment, listed as fispemifene", "value": "about 75%"}, {"measurement": "Serum total testosterone concentration, Mean", "setting": "300 mg per day oral, Baseline", "value": 15.67, "unit": "nmol/L"}, {"measurement": "Serum total testosterone concentration, Mean", "setting": "300 mg per day oral, Day 8", "value": 23.17, "unit": "nmol/L"}, {"measurement": "Serum total testosterone concentration, Mean", "setting": "300 mg per day oral, Day 15", "value": 27.00, "unit": "nmol/L"}, {"measurement": "Serum total testosterone concentration, Mean", "setting": "300 mg per day oral, Day 22", "value": 27.83, "unit": "nmol/L"}, {"measurement": "Serum total testosterone concentration, Mean", "setting": "300 mg per day oral, Day 28", "value": 27.50, "unit": "nmol/L"}, {"measurement": "serum concentrations of testosterone, FSH, LH, and SHBG", "setting": "during the 28 days of treatment", "value": "increased"}, {"measurement": "men with serum testosterone level above the upper limit of normal range (33 nmol/L) during treatment", "setting": "highest dose (300 mg), six men", "value": "Two out of six men"}, {"measurement": "change in the serum testosterone concentration", "setting": "within 28 days from the start of the treatment", "value": "clinically and statistically significant and dose dependent increase"}]}
